Results on three compounds are retold here after patent publication EP3842803A1, “CXCL14 IN POLYCYSTIC OVARY SYNDROME” (Katholieke Universiteit Leuven, priority 2019, dated 2021).

Data set [1] deals with CXCL14 mRNA expression. Nature of the data set: cells. The class given is cell-based, human. To be noted: for effect of addition to pioglitazone on pioglitazone induction of CXCL14 mRNA expression: added to pioglitazone, 10 days across differentiation (Figure 2B). How it is done: (§1) • Figure 1 • A. Baseline circulating CXCL14 concentrations in girls with polycystic ovary syndrome (PCOS, N= 52) and in healthy age-matched controls (N= 21). Data are mean + SEM. • B. Longitudinal results of CXCL14 serum concentrations in girls with PCOS who received an oral contraceptive (OC, white circles, N= 16) or low-dose spironolactone, pioglitazone and metformin (SPIOMET, black circles, N= 15). […] SGBS human pre-adipocytes were treated chronically (10 days) with pioglitazone, spironolactone or metformin alone (A) or in combination (B, C, D) at the indicated doses across the adipoipogeic differentiation process. • A, B. CXCL14 transcript levels are presented as means + SEM from 4-5 independent experiments, and are expressed relative to values from untreated control cells. • C. […] SGBS cells were treated acutely (24h, at the indicated doses) when already differentiated adipocytes.
(§2) Cell culture reagents and drugs were from Sigma.

For data set [2], the system named is CXCL14 mRNA expression. The data set can be described thus: CXCL14 transcript levels (qRT-PCR) in already differentiated SGBS adipocytes treated acutely (24h). It is filed as cell-based, human. To be noted: acute 24h treatment; spironolactone at 10 µM (Figure 3A). Here is the method: as §1, §2
The subject of data set [3] is CXCL14 protein. Nature of the data set: CXCL14 protein (ELISA) in cell culture medium of differentiating SGBS cells. It is filed as cell-based, human. To be noted: chronic treatment across differentiation; detectable only under pioglitazone treatment.
Source text: as §2

The subject of data set [4] is CXCL14 protein. To be noted: sgbs adipocytes, 24 h. How it is done: as §1, §2

As to `CN(C)C(=N)N=C(N)N` [metformin], the “effect of addition to pioglitazone on pioglitazone induction of CXCL14 mRNA expression” value in data set [1] was “did not modify”. The “CXCL14 mRNA expression on already differentiated human adipocytes” value in data set [2] is on record as “Neither pioglitazone nor metformin alone had any effect”.
On to `CCc1ccc(CCOc2ccc(CC3SC(=O)NC3=O)cc2)nc1` (stereo not shown) [pioglitazone], for which the fold induction at 0.1 µM in data set [1] (Homo sapiens, SGBS, 240 h, read-out: induction of CXCL14 mRNA expression) is roughly 10. In addition, in data set [3], the “CXCL14 protein in the cell culture medium of differentiating cells” value is listed as 0.185 ng/mL.
As to `CC(=O)S[C@@H]1CC2=CC(=O)CC[C@]2(C)[C@H]2CC[C@@]3(C)[C@@H](CC[C@@]34CCC(=O)O4)[C@H]12` [spironolactone], the “effect of addition to pioglitazone on pioglitazone induction of CXCL14 mRNA expression” value in data set [1] is reported as “reduced significantly”. The “increase of the CXCL14 protein levels released by adipocytes to the cell culture medium” value in data set [4] is roughly 8 fold. Further, the “CXCL14 mRNA expression on already differentiated human adipocytes” value in data set [2] was “significant induction”.
